Data reported in paper PMC6669827 (Toxins, 2019).
Where “and” joins values, the source holds several entries; their conditions need not be identical. Equal values may be shown once. Entries after “also recorded” stand apart in the source; their conditions may differ.

Key:
human α3β2 nAChR = format: cell-based
human α7 nAChR = target: T1, human α7 nAChR (Homo sapiens, UniProt P36544); format: cell-based
T1 construct: expressed in transfected cells; host or cells: Xenopus laevis oocytes injected with cRNA (55.8 ng per oocyte); the cDNA clone was a gift of Dr. J. Michael McIntosh, University of Utah
T1 sequence (P36544 23-502): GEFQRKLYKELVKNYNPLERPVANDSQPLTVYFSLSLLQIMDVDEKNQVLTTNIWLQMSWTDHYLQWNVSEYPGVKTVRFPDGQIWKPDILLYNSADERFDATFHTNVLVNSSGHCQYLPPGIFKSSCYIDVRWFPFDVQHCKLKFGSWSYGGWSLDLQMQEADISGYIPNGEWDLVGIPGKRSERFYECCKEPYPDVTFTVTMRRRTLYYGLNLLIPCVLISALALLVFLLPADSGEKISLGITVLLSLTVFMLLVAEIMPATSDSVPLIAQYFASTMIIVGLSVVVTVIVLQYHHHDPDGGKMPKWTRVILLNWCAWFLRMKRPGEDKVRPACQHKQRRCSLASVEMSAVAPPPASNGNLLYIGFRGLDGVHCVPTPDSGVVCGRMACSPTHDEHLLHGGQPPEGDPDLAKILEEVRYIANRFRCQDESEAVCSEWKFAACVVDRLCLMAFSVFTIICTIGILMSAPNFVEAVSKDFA

αD-PiXXA [F7-3] was tested, and the “inhibition of the ACh-induced response on hα3β2 nAChRs by purified peptide” value (human α3β2 nAChR) was 6.7 ± 3.1%, the “effect on hα3β2 nAChRs (in words)” value (human α3β2 nAChR; 6.5 μM) was “did not significantly affect” and the “reversibility of the effect of purified peptide on hα7 nAChR (in words)” value (human α7 nAChR) was “slowly reversible; also recorded: very slowly reversible”. For the same substance, the “selectivity hα7 over hα3β2 (in words)” value (human α7 nAChR) was “selective for hα7 nAChRs”, the “time to return to the initial activity after starting the washout, hα7 nAChR” value (human α7 nAChR) was 21 min and ~ 21 min and the IC50 (human α7 nAChR; read-out: half-maximal inhibitory concentration (IC50) on hα7 nAChRs) was 6.2 µM.
